Converted amounts (≈) assume the structure as drawn.
Key:
Format in all cases: cell-based
Escherichia coli [1] = experiment: MIC assay, concentration gradient agar strip method
Excerpt: (§1) Combination of the pre-fabricated antimicrobial drug and pre-fabricated culture medium to form a test strip unit: the films are removed from the bottom and top of the culture medium container, and the cells of the culture medium container can be inserted into the corresponding cells of the drug container. Then, the drug container is covered with a lid, and the pressure created in the process causes the antimicrobial drug at the bottoms of the cells to come into contact with the solid culture medium, and therefore dissolved in the agar culture medium to reach a specific concentration. To use the solid culture medium, a bacterial culture solution can be applied on the upper surface of the solid culture medium in each cell of the culture medium container. Then the culture medium container is covered with a lid, and then kept at 35° C. for 16-20 hours before the culture result is visually checked. When the drug concentration is higher than the MIC for the bacteria, no bacteria is observed on the surface of the gel. When the drug concentration is lower than the MIC, the bacteria grows on the surface of the culture medium and eventually develops a bacterial colony thereon. The lowest drug concentration at which no bacteria is observed on the gel surface is considered as the MIC of the antimicrobial drug for the strain under test.
(§2) A concentration gradient measurement method for use in bacterial/fungal drug susceptibility testing is provided. […] The bacterial lawn on the drug-free control agar blocks is expected to grow well; and • 8) in the meantime, performing an MIC assay on the test strains with tube broth dilution method.

Enterobacter cloacae [2] = experiment: as above
Excerpt: as §1, §2

Klebsiella oxytoca [3] = experiment: as above
Excerpt: as §1, §2

Proteus mirabilis [4] = experiment: as above; details: Strain No. 27 Proteus mirabilis
Excerpt: as §1, §2

Klebsiella pneumoniae [5] = experiment: as above
Excerpt: as §1, §2

Escherichia coli [6] = experiment: MIC assay, tube broth dilution method; details: read-out: MIC, Concentration (tube broth dilution method)
Excerpt: as §2

Enterobacter cloacae [7] = experiment: MIC assay, tube broth dilution method
Excerpt: as §2

Klebsiella oxytoca [8] = experiment: MIC assay, tube broth dilution method
Excerpt: as §2

Proteus mirabilis [9] = experiment: MIC assay, tube broth dilution method; details: Strain No. 27 Proteus mirabilis; read-out: MIC, Concentration (tube broth dilution method)
Excerpt: as §2

Klebsiella pneumoniae [10] = experiment: MIC assay, tube broth dilution method; details: read-out: MIC, Concentration (tube broth dilution method)
Excerpt: as §2

Streptococcus pneumoniae [11] = experiment: MIC assay, concentration gradient agar strip method
Excerpt: as §1
(§3) This embodiment still uses a drug container with 12 round cells, and each round cell has internal dimensions of 4 mm×6 mm (bottom's radius×height). However, the experimental strains in use are Streptococcus pneumoniae. […] The bacterial lawn on the drug-free control agar blocks is expected to grow well; and • 8) performing an MIC assay on the test strains with the tube broth dilution method.

Streptococcus pneumoniae [12] = experiment: MIC assay, tube broth dilution method; details: read-out: MIC, Concentration (tube broth dilution method)
Excerpt: as §3

[13] = Strain No. 29 Enterobacter cloacae
[14] = Strain No. 25 Klebsiella oxytoca
[15] = Strain No. 1 Klebsiella pneumoniae
[16] = Strain No. 2 Klebsiella pneumoniae
[17] = Strain No. 3 Klebsiella pneumoniae
[18] = Strain No. 4 Klebsiella pneumoniae
[19] = Strain No. 5 Klebsiella pneumoniae
[20] = Strain No. 6 Klebsiella pneumoniae
[21] = Strain No. 7 Klebsiella pneumoniae
[22] = Strain No. 8 Klebsiella pneumoniae
[23] = Strain No. 18 Klebsiella pneumoniae
[24] = Strain No. 21 Klebsiella pneumoniae
[25] = Strain No. 24 Klebsiella pneumoniae
[26] = Strain No. 1 Streptococcus pneumoniae
[27] = Strain No. 2 Streptococcus pneumoniae
[28] = Strain No. 3 Streptococcus pneumoniae
[29] = Strain No. 4 Streptococcus pneumoniae
[30] = Strain No. 5 Streptococcus pneumoniae
[31] = Strain No. 6 Streptococcus pneumoniae
[32] = Strain No. 7 Streptococcus pneumoniae
[33] = Strain No. 8 Streptococcus pneumoniae
[34] = Strain No. 9 Streptococcus pneumoniae
[35] = Strain No. 10 Streptococcus pneumoniae
[36] = Strain No. 11 Streptococcus pneumoniae
[37] = Strain No. 12 Streptococcus pneumoniae
[38] = Strain No. 13 Streptococcus pneumoniae
[39] = Strain No. 14 Streptococcus pneumoniae
[40] = Strain No. 15 Streptococcus pneumoniae
[41] = Strain No. 16 Streptococcus pneumoniae
[42] = Strain No. 17 Streptococcus pneumoniae
[43] = Strain No. 18 Streptococcus pneumoniae
[44] = Strain No. 19 Streptococcus pneumoniae
[45] = Strain No. 20 Streptococcus pneumoniae

CO/N=C(\C(=O)N[C@@H]1C(=O)N2C(C(=O)O)=C(COC(C)=O)CS[C@H]12)c1csc(N)n1 [Cefotaxime]
MIC (Escherichia coli [1]; Strain No. 9 Escherichia coli): 8 µg/mL
MIC (Escherichia coli [1]; Strain No. 10 Escherichia coli): 1 µg/mL
MIC (Escherichia coli [1]; Strain No. 11 Escherichia coli): 2 µg/mL
MIC (Escherichia coli [1]; Strain No. 12 Escherichia coli): 4 µg/mL
MIC (Escherichia coli [1]; Strain No. 13 Escherichia coli): 4 µg/mL
MIC (Escherichia coli [1]; Strain No. 14 Escherichia coli): 8 µg/mL
MIC (Escherichia coli [1]; Strain No. 15 Escherichia coli): 2 µg/mL
MIC (Escherichia coli [1]; Strain No. 16 Escherichia coli): 4 µg/mL
MIC (Escherichia coli [1]; Strain No. 17 Escherichia coli): 4 µg/mL
MIC (Escherichia coli [1]; Strain No. 19 Escherichia coli): 16 µg/mL
MIC (Escherichia coli [1]; Strain No. 20 Escherichia coli): 4 µg/mL
MIC (Escherichia coli [1]; Strain No. 23 Escherichia coli): 8 µg/mL
MIC (Escherichia coli [1]; Strain No. 26 Escherichia coli): 4 µg/mL
MIC (Escherichia coli [1]; Strain No. 30 Escherichia coli): 8 µg/mL
MIC (Enterobacter cloacae [2]; Strain No. 28 Enterobacter cloacae): 16 µg/mL
MIC, Concentration (gradient agar strip method) (Enterobacter cloacae [2]; [13]): 16.0 µg/mL
MIC (Klebsiella oxytoca [3]; Strain No. 22 Klebsiella oxytoca): 8 µg/mL
MIC, Concentration (gradient agar strip method) (Klebsiella oxytoca [3]; [14]): 8.0 µg/mL
MIC (Proteus mirabilis [4]): 8 µg/mL
MIC (Klebsiella pneumoniae [5]; [15]): 4 µg/mL
MIC (Klebsiella pneumoniae [5]; [16]): 4 µg/mL
MIC (Klebsiella pneumoniae [5]; [17]): 4 µg/mL
MIC (Klebsiella pneumoniae [5]; [18]): 2 µg/mL
MIC (Klebsiella pneumoniae [5]; [19]): 2 µg/mL
MIC (Klebsiella pneumoniae [5]; [20]): 4 µg/mL
MIC (Klebsiella pneumoniae [5]; [21]): 8 µg/mL
MIC (Klebsiella pneumoniae [5]; [22]): 4 µg/mL
MIC (Klebsiella pneumoniae [5]; [23]): 16 µg/mL
MIC (Klebsiella pneumoniae [5]; [24]): 8 µg/mL
MIC (Klebsiella pneumoniae [5]; [25]): 4 µg/mL
MIC (Escherichia coli [6]; Strain No. 9 Escherichia coli): 8 µg/mL (≈ 17.6 µM)
MIC (Escherichia coli [6]; Strain No. 10 Escherichia coli): 1 µg/mL (≈ 2.2 µM)
MIC (Escherichia coli [6]; Strain No. 11 Escherichia coli): 4 µg/mL (≈ 8.78 µM)
MIC (Escherichia coli [6]; Strain No. 12 Escherichia coli): 4 µg/mL (≈ 8.78 µM)
MIC (Escherichia coli [6]; Strain No. 13 Escherichia coli): 4 µg/mL (≈ 8.78 µM)
MIC (Escherichia coli [6]; Strain No. 14 Escherichia coli): 8 µg/mL (≈ 17.6 µM)
MIC (Escherichia coli [6]; Strain No. 15 Escherichia coli): 4 µg/mL (≈ 8.78 µM)
MIC (Escherichia coli [6]; Strain No. 16 Escherichia coli): 4 µg/mL (≈ 8.78 µM)
MIC (Escherichia coli [6]; Strain No. 17 Escherichia coli): 4 µg/mL (≈ 8.78 µM)
MIC (Escherichia coli [6]; Strain No. 19 Escherichia coli): 16 µg/mL (≈ 35.1 µM)
MIC (Escherichia coli [6]; Strain No. 20 Escherichia coli): 4 µg/mL (≈ 8.78 µM)
MIC (Escherichia coli [6]; Strain No. 23 Escherichia coli): 8 µg/mL (≈ 17.6 µM)
MIC (Escherichia coli [6]; Strain No. 26 Escherichia coli): 4 µg/mL (≈ 8.78 µM)
MIC (Escherichia coli [6]; Strain No. 30 Escherichia coli): 8 µg/mL (≈ 17.6 µM)
MIC (Enterobacter cloacae [7]; Strain No. 28 Enterobacter cloacae, read-out: MIC, Concentration (tube broth dilution method)): 16 µg/mL (≈ 35.1 µM)
MIC, Concentration (tube broth dilution method) (Enterobacter cloacae [7]; [13]): 16.0 µg/mL (≈ 35.1 µM)
MIC (Klebsiella oxytoca [8]; Strain No. 22 Klebsiella oxytoca, read-out: MIC, Concentration (tube broth dilution method)): 8 µg/mL (≈ 17.6 µM)
MIC, Concentration (tube broth dilution method) (Klebsiella oxytoca [8]; [14]): 8.0 µg/mL (≈ 17.6 µM)
MIC (Proteus mirabilis [9]): 4 µg/mL (≈ 8.78 µM)
MIC (Klebsiella pneumoniae [10]; [15]): 4 µg/mL (≈ 8.78 µM)
MIC (Klebsiella pneumoniae [10]; [16]): 4 µg/mL (≈ 8.78 µM)
MIC (Klebsiella pneumoniae [10]; [17]): 2 µg/mL (≈ 4.39 µM)
MIC (Klebsiella pneumoniae [10]; [18]): 2 µg/mL (≈ 4.39 µM)
MIC (Klebsiella pneumoniae [10]; [19]): 2 µg/mL (≈ 4.39 µM)
MIC (Klebsiella pneumoniae [10]; [20]): 4 µg/mL (≈ 8.78 µM)
MIC (Klebsiella pneumoniae [10]; [21]): 8 µg/mL (≈ 17.6 µM)
MIC (Klebsiella pneumoniae [10]; [22]): 4 µg/mL (≈ 8.78 µM)
MIC (Klebsiella pneumoniae [10]; [23]): 16 µg/mL (≈ 35.1 µM)
MIC (Klebsiella pneumoniae [10]; [24]): 8 µg/mL (≈ 17.6 µM)
MIC (Klebsiella pneumoniae [10]; [25]): 4 µg/mL (≈ 8.78 µM)

CC1(C)S[C@@H]2[C@H](NC(=O)[C@H](N)c3ccc(O)cc3)C(=O)N2[C@H]1C(=O)O [Amoxicillin]
MIC (Streptococcus pneumoniae [11]; [26]): 0.12 µg/mL
MIC (Streptococcus pneumoniae [11]; [27]): 0.12 µg/mL
MIC (Streptococcus pneumoniae [11]; [28]): 0.25 µg/mL
MIC (Streptococcus pneumoniae [11]; [29]): 0.25 µg/mL
MIC (Streptococcus pneumoniae [11]; [30]): 0.5 µg/mL
MIC (Streptococcus pneumoniae [11]; [31]): 0.12 µg/mL
MIC (Streptococcus pneumoniae [11]; [32]): 0.25 µg/mL
MIC (Streptococcus pneumoniae [11]; [33]): 1 µg/mL
MIC (Streptococcus pneumoniae [11]; [34]): 0.25 µg/mL
MIC (Streptococcus pneumoniae [11]; [35]): 2 µg/mL
MIC (Streptococcus pneumoniae [11]; [36]): 0.12 µg/mL
MIC (Streptococcus pneumoniae [11]; [37]): 0.06 µg/mL
MIC (Streptococcus pneumoniae [11]; [38]): 0.06 µg/mL
MIC (Streptococcus pneumoniae [11]; [39]): 2 µg/mL
MIC (Streptococcus pneumoniae [11]; [40]): 0.12 µg/mL
MIC (Streptococcus pneumoniae [11]; [41]): 0.12 µg/mL
MIC (Streptococcus pneumoniae [11]; [42]): 1 µg/mL
MIC (Streptococcus pneumoniae [11]; [43]): 0.5 µg/mL
MIC (Streptococcus pneumoniae [11]; [44]): 0.25 µg/mL
MIC (Streptococcus pneumoniae [11]; [45]): 0.12 µg/mL
MIC (Streptococcus pneumoniae [12]; [26]): 0.12 µg/mL (≈ 0.328 µM)
MIC (Streptococcus pneumoniae [12]; [27]): 0.12 µg/mL (≈ 0.328 µM)
MIC (Streptococcus pneumoniae [12]; [28]): 0.12 µg/mL (≈ 0.328 µM)
MIC (Streptococcus pneumoniae [12]; [29]): 0.25 µg/mL (≈ 0.684 µM)
MIC (Streptococcus pneumoniae [12]; [30]): 0.5 µg/mL (≈ 1.37 µM)
MIC (Streptococcus pneumoniae [12]; [31]): 0.12 µg/mL (≈ 0.328 µM)
MIC (Streptococcus pneumoniae [12]; [32]): 0.25 µg/mL (≈ 0.684 µM)
MIC (Streptococcus pneumoniae [12]; [33]): 0.5 µg/mL (≈ 1.37 µM)
MIC (Streptococcus pneumoniae [12]; [34]): 0.25 µg/mL (≈ 0.684 µM)
MIC (Streptococcus pneumoniae [12]; [35]): 2 µg/mL (≈ 5.47 µM)
MIC (Streptococcus pneumoniae [12]; [36]): 0.12 µg/mL (≈ 0.328 µM)
MIC (Streptococcus pneumoniae [12]; [37]): 0.06 µg/mL (≈ 0.164 µM)
MIC (Streptococcus pneumoniae [12]; [38]): 0.12 µg/mL (≈ 0.328 µM)
MIC (Streptococcus pneumoniae [12]; [39]): 2 µg/mL (≈ 5.47 µM)
MIC (Streptococcus pneumoniae [12]; [40]): 0.12 µg/mL (≈ 0.328 µM)
MIC (Streptococcus pneumoniae [12]; [41]): 0.12 µg/mL (≈ 0.328 µM)
MIC (Streptococcus pneumoniae [12]; [42]): 1 µg/mL (≈ 2.74 µM)
MIC (Streptococcus pneumoniae [12]; [43]): 1 µg/mL (≈ 2.74 µM)
MIC (Streptococcus pneumoniae [12]; [44]): 0.12 µg/mL (≈ 0.328 µM)
MIC (Streptococcus pneumoniae [12]; [45]): 0.12 µg/mL (≈ 0.328 µM)

From US10443082B2, “Concentration gradient test reagent kit and testing method for use in bacterial/fungal drug susceptibility testing” (XINTRUM PHARMACEUTICALS, LTD, priority 2014, dated 2019)
